The test system of assay [1] is PCP-induced hyperactivity in mice. The experiment in a line: In vivo efficacy test (PCP-induced high locomotor activity in mice). To be noted: male ICR mice, oral administration 45 minutes before PCP 7 mg/kg i.p.; dose significantly reducing PCP-induced hyperactivity vs model group. Here is the method: 5) In Vivo Efficacy Test (PCP-Induced High Locomotor Activity in Mice)
PCP solution was prepared in a suitable concentration for 7 mg/kg dosage with saline. […] Male ICR mice (18-22 g) were used as test animals. All the test mice were randomly divided into vehicle control group, model control group, positive control group, and treatment group(8 mice per group). Mice of each group were orally administered test compounds or vehicle. After 45 minutes PCP solution was administered (7 mg/kg) through intraperitoneal injection. The mice track after drug or saline administration was recorded and analyzed by the spontaneous, open-field video analysis system. […] The mice track was recorded and analyzed by the spontaneous, open-field video analysis system. The total distance in each group was calculate and expressed as mean+SD and statistical evaluation was performed by one way ANOVA.

Assay [2] has as its target human recombinant 5-HT2A receptor (Homo sapiens (Human), UniProt P28223). Kind of assay: 5-HT2A receptor antagonism activity test (FLIPR Calcium 5 Assay Kit). As to conditions: read-out: 5-HT2A receptor antagonism (IC50, mol/L).
Assay [3] concerns the target human recombinant 5-HT1A receptor (Homo sapiens (Human), UniProt P08908). The experiment in a line: 5-HT1A receptor agonism activity test (inhibition of cAMP production, LANCE cAMP 384 Kit). It is filed as cell-based. As to conditions: HEK293 cells expressing human recombinant 5-HT1A receptor; test concentration 0.1 nM-10000 nM; read-out: 5-HT1A receptor agonism (EC50, mol/L). The source says:
Pharmacological Test 1) 5-HT1A Receptor Agonism Activity Test
(In general: Cyclic AMP is a second messenger, typically raised through Gs and lowered through Gi signalling.)

In assay [4] the target is human recombinant D2 receptor (Homo sapiens (Human), UniProt P14416). The experiment in a line: D2 receptor antagonism activity test (inhibition of dopamine-induced decrease of cAMP production, LANCE cAMP 384 Kit). To be noted: read-out: D2 receptor antagonism (IC50, mol/L), HEK293 cells expressing human recombinant D2 receptor, 0.1 nM-10000 nM.
The mark [5] stands for this setting: CHO-K1 cells expressing human recombinant 5-HT2A receptor, α-methyl-5-hydroxytryptamine 300 nM, 0.1 nM-10000 nM.

Read-outs that look alike come from different tables or passages of the source.

human recombinant 5-HT1A receptor, sequence (P08908 whole entry): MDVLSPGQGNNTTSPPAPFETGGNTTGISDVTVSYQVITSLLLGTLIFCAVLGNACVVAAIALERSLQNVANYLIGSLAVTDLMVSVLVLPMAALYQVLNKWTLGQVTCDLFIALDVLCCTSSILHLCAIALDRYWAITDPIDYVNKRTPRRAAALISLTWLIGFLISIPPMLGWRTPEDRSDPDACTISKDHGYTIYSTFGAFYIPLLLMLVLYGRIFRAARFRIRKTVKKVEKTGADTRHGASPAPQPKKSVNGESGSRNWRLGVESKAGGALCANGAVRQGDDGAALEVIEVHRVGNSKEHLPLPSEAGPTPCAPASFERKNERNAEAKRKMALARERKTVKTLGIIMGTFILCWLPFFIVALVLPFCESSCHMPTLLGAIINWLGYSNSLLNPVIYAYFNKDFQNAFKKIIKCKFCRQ
human recombinant D2 receptor, sequence (P14416 whole entry): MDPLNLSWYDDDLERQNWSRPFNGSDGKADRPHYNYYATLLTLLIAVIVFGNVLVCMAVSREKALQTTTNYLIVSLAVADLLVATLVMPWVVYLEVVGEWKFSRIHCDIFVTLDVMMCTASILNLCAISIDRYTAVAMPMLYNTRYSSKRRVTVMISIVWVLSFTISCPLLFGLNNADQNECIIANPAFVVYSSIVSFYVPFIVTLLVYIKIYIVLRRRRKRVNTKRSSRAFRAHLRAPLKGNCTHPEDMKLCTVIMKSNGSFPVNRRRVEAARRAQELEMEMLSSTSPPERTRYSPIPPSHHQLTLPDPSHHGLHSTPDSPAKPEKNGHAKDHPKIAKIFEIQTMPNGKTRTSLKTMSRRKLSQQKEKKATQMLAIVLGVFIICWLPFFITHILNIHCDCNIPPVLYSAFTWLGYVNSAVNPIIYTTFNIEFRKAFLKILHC
human recombinant 5-HT2A receptor, sequence (P28223 whole entry): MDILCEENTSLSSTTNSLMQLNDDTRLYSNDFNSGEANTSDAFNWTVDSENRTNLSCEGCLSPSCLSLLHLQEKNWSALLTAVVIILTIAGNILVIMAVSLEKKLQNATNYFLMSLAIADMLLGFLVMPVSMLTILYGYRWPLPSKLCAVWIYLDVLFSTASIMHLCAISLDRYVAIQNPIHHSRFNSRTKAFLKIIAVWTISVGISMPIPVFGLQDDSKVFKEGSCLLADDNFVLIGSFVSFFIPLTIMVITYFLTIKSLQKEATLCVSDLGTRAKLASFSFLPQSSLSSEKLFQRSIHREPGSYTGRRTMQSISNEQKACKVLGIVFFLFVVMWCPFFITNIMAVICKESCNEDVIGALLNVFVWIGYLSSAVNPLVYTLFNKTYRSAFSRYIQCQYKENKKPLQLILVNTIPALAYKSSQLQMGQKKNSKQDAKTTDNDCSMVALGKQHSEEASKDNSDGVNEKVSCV

For `CC(=O)N1CC(CCN2CCN(c3cccc4sccc34)CC2)c2ccccc21.Cl` (centres unmarked) [Compound of example 124, 1-(3-(2-(4-(benzo[b]thiophen-4-yl)piperazin-1-yl)ethyl)indolin-1-yl)ethanone hydrochloride], the “Effective dose” value in assay [1] came to 3 mg/kg.
Same read-out and setting: the result for `O=c1ccc2ccc(CCCCCN3CCN(c4cc(F)cc5sccc45)CC3)cc2[nH]1` [Compound of example 71, 7-(5-(4-(6-fluorobenzo[b]thiophen-4-yl)piperazin-1-yl)pentyl)quinolin-2(1H)-one] reads 3 mg/kg; that for `c1cc(N2CCN(CCc3ccc4ncsc4c3)CC2)c2ccsc2c1` [Compound of example 59, 6-(2-(4-(benzo[b]thiophen-4-yl)piperazin-1-yl)ethyl)benzo[d]thiazole], 0.3 mg/kg; that for `Cl.O=c1[nH]c2ccc(CCN3CCN(c4cccc5sccc45)CC3)cc2s1` [Compound of example 29, 6-(2-(4-(benzo[b]thiophen-4-yl)piperazin-1-yl)ethyl)benzo[d]thiazol-2(3H)-one hydrochloride], 0.3 mg/kg.
On to `c1ccc2c(CCN3CCN(c4cccc5sccc45)CC3)c[nH]c2c1` [Compound of example 46, 3-(2-(4-(benzo[b]thiophen-4-yl)piperazin-1-yl)ethyl)-1H-indole], for which, in assay [1], the “Effective dose” value is 1 mg/kg.
Still for that read-out and setting: with `O=c1[nH]c2ccc(CCN3CCN(c4cccc5sccc45)CC3)cc2[nH]1` [Compound of example 27, 5-(2-(4-(benzo[b]thiophen-4-yl)piperazin-1-yl)ethyl)-1H-benzo[d]imidazol-2(3H)-one] the figure was 0.3 mg/kg.
For the compound `CN1C(=O)COc2ccc(CCN3CCN(c4cccc5sccc45)CC3)cc21` [Compound of example 114, 6-(2-(4-(benzo[b]thiophen-4-yl)piperazin-1-yl)ethyl)-4-methyl-2H-benzo[b][1,4]oxazin-3(4H)-one], the IC50 in assay [2] (setting [5]) amounted to 461 nM; in assay [4], 26.9 nM. The EC50 in assay [3] was found to be 8.08 nM.
In the case of `COc1ccc2[nH]cc(CCCCN3CCN(c4cccc5sccc45)CC3)c2c1` [Compound of example 107, 3-(4-(4-(benzo[b]thiophen-4-yl)piperazin-1-yl)butyl)-5-methoxy-1H-indole], the IC50 worked out at 393 nM in assay [2] (setting [5]) and 8.43 nM in assay [4]. Also, the EC50 in assay [3] was 7.95 nM.
On to `O=C1Cc2cc(CCN3CCN(c4cccc5sc(F)cc45)CC3)c(Cl)cc2N1` [Compound of example 113, 6-chloro-5-(2-(4-(2-fluorobenzo[b]thiophen-4-yl)piperazin-1-yl)ethyl)indolin-2-one], for which the figures for the IC50 in assay [2] (setting [5]) and in assay [4] were 716 nM and 61 nM, respectively. In assay [3], the EC50 was 9.09 nM.
For `CC(=O)Nc1nc2cccc(CCN3CCN(c4cccc5sccc45)CC3)c2s1` [Compound of example 119, N-(7-(2-(4-(benzo[b]thiophen-4-yl)piperazin-1-yl)ethyl)benzo[d]thiazol-2-yl)acetamide], in that order: 34.3 nM, 4.69 nM and 0.787 nM.
In the case of `CN1Cc2cc(CCN3CCN(c4cccc5sccc45)CC3)ccc2NC1=O` [Compound of example 51, 6-(2-(4-(benzo[b]thiophen-4-yl)piperazin-1-yl)ethyl)-3-methyl-3,4-dihydroquinazolin-2(1H)-one], the “Effective dose” value in assay [1] came to 1 mg/kg.
Same read-out and setting: with `O=C1Cc2cc(CCN3CCN(c4cccc5sccc45)CC3)ccc2N1` [Compound of example 8, 5-(2-(4-(benzo[b]thiophen-4-yl)piperazin-1-yl)ethyl)indolin-2-one] the figure was 0.1 to 0.3 mg/kg.
As to `CC(=O)Nc1nc2c(CCN3CCN(c4cccc5sccc45)CC3)cccc2s1` [Compound of example 121, N-(4-(2-(4-(benzo[b]thiophen-4-yl)piperazin-1-yl)ethyl)benzo[d]thiazol-2-yl)acetamide], the IC50 in assay [2] (setting [5]) was 41 nM; in assay [4] it was 216 nM. For the same compound, in assay [3], the EC50 stood at 32 nM.
For the compound `Cl.O=C1CCCc2cc(CCN3CCN(c4cccc5sccc45)CC3)ccc2N1` [Compound of example 49, 7-(2-(4-(benzo[b]thiophen-4-yl)piperazin-1-yl)ethyl)-4,5-dihydro-1H-benzo[b]azepin-2(3H)-one hydrochloride], the “Effective dose” value in assay [1] amounted to 1 mg/kg.
With `COC(CN1CCN(c2cccc3sccc23)CC1)c1cccc2c1OCC(=O)N2` (centres unmarked) [Compound of example 144, 8-(2-(4-(benzo[b]thiophen-4-yl)piperazin-1-yl)-1-methoxyethyl)-2H-benzo[b][1,4]oxazin-3(4H)-one], the IC50 in assay [2] was found to be 17 nM; in assay [4], 65.8 nM. In addition, the EC50 in assay [3] was 8.93 nM.
For the compound `O=C1CCc2ccc(OCCCCN3CCN(c4cccc(Cl)c4Cl)CC3)cc2N1` [aripiprazole, reference compound], the “Effective dose” value in assay [1] is recorded as 3 mg/kg.
On to `O=C1CCc2cc(Cl)c(CCN3CCN(c4cccc5sccc45)CC3)cc2N1` [Compound of example 23, 7-(2-(4-(benzo[b]thiophen-4-yl)piperazin-1-yl)ethyl)-6-chloro-3,4-dihydroquinolin-2(1H)-one], for which the IC50 in assay [2] (setting [5]) turned out to be 97.6 nM; in assay [4], 81.2 nM. In addition, the EC50 in assay [3] amounted to 463 nM.
The corresponding values for `O=C1CCc2cc(CCCCN3CCN(c4cccc5sccc45)CC3)ccc2N1` [Compound of example 111, 6-(4-(4-(benzo[b]thiophen-4-yl)piperazin-1-yl)butyl)-3,4-dihydroquinolin-2(1H)-one] are 400 nM, 23.9 nM and 29.5 nM.
The corresponding values for `O=C1Cc2cc(C(O)CN3CCN(c4cccc5sccc45)CC3)ccc2N1` (centres unmarked) [Compound of example 145, 5-(2-(4-(benzo[b]thiophen-4-yl)piperazin-1-yl)-1-hydroxyethyl)indolin-2-one] are 14.7 nM, 192 nM and 6.3 nM.
With `O=c1ccc2ccc(CCN3CCN(c4cccc5c4CCS5)CC3)cc2[nH]1` [Compound of example 25, 7-(2-(4-(2,3-dihydrobenzo[b]thiophen-4-yl)piperazin-1-yl)ethyl)quinolin-2(1H)-one], the results for the IC50 in assay [2] and in assay [4] were 77.9 nM and 85.1 nM, respectively. In addition, the EC50 in assay [3] worked out at 0.824 nM.
Turning to `Cc1nc2n(c(=O)c1CCN1CCN(c3cc(F)cc4sccc34)CC1)CCCC2` [Compound of example 90, 3-(2-(4-(6-fluorobenzo[b]thiophen-4-yl)piperazin-1-yl)ethyl)-2-methyl-6,7,8,9-tetrahydro-4H-pyrido[1,2-a]pyrimidin-4-one], the IC50 was 13.6 nM in assay [2] (setting [5]) and 10.4 nM in assay [4]. In assay [3], the EC50 amounted to 27.7 nM.
Take `Cl.O=C1Cc2cc(CCN3CCN(c4cccc5sccc45)CC3)c(Cl)cc2N1` [Compound of example 15, 5-(2-(4-(benzo[b]thiophen-4-yl)piperazin-1-yl)ethyl)-6-chloroindolin-2-one hydrochloride]: the “Effective dose” value in assay [1] lay in the range of 0.1 to 1 mg/kg.
Take `O=C1Cc2cc(CCN3CCN(c4cccc5c4CCS5)CC3)c(Cl)cc2N1` [Compound of example 1, 6-chloro-5-(2-(4-(2,3-dihydrobenzo[b]thiophen-4-yl)piperazin-1-yl)ethyl)indolin-2-one]: the IC50 in assay [2] (setting [5]) came to 227 nM; in assay [4] it was 56.9 nM. The EC50 in assay [3] was determined as 3.31 nM.
For `Cn1c(=O)[nH]c2ccc(CCN3CCN(c4cccc5sccc45)CC3)cc21` [Compound of example 86, 6-(2-(4-(benzo[b]thiophen-4-yl)piperazin-1-yl)ethyl)-1-methyl-1H-benzo[d]imidazol-2(3H)-one], in that order: 93.3 nM, 23.5 nM and 21.6 nM.
As to `CC(=O)n1cc(CCCCN2CCN(c3cccc4sccc34)CC2)c2cc(C#N)ccc21` [Compound of example 110, 1-acetyl-3-(4-(4-(benzo[b]thiophen-4-yl)piperazin-1-yl)butyl)-1H-indole-5-carbonitrile], the results for the IC50 in assay [2] (setting [5]) and in assay [4] were 1760 nM and 57.6 nM, respectively. The EC50 in assay [3] is 84 nM.
For `O=C1COc2c(F)cc(CCN3CCN(c4cccc5sccc45)CC3)cc2N1` [Compound of example 139, 6-(2-(4-(benzo[b]thiophen-4-yl)piperazin-1-yl)ethyl)-8-fluoro-2H-benzo[b][1,4]oxazin-3(4H)-one], in that order: 104 nM, 79.6 nM and 0.766 nM.
For `N#Cc1ccc2[nH]cc(CCCCN3CCN(c4cccc5sccc45)CC3)c2c1` [Compound of example 70, 3-(4-(4-(benzo[b]thiophen-4-yl)piperazin-1-yl)butyl)-1H-indole-5-carbonitrile], in that order: 332 nM, 79.7 nM and 9.7 nM.

Values taken from patent US10174011B2, “Heterocyclic compounds, process for preparation of the same and use thereof” (SHANGHAI INSTITUTE OF MATERIA MEDICA, CHINESE ACADEMY OF …, priority 2014, dated 2019).
